Article PMC11949107, “Polyunsaturated fatty acids and their endocannabinoid-related metabolites activity at human TRPV1 and TRPA1 ion channels expressed in HEK-293 cells” (PeerJ, 2025)
Several values for one entry are separate records, joined by “and”; a condition that tells them apart may be missing. Identical values can stand only once.

Tests used:
human TRPA1 = target: T1, human TRPA1 (Homo sapiens, UniProt O75762); assay: Calcium 5 dye [Ca]i assay in HEK-293 Flp-In T-REx cells expressing TRPA1 (agonist response); type: cell-based; conditions: for [Ca]i response (change in fluorescence), individual replicates: sheet Figure 4
T1 construct: Life Technologies (cells); host or cells: Flp-In T-REx HEK-293
Outline: (§1)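 Tetracycline-induced (1 µg ml^−1, 4 h) HEK-293 T-REx cells loaded with Calcium 5 dye plus 1.25 mM probenecid for 1 h; agonist added after 1 min baseline (0.1% DMSO final), fluorescence (485/525 nm) read every 2 s for 5 min at 37 °C. Response as % change from baseline, solvent-subtracted; EC50/Emax from three-parameter logistic fit, given as pEC50.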

human TRPV1 [1] = target: T2, human TRPV1 (Homo sapiens, UniProt Q8NER1); assay: PMA (phorbol ester) potentiation of TRPV1 responses in HEK-293 TRPV1 cells; type: cell-based; design: key to Drugs alone, individual experiments: change in [Ca]i as % of pre-drug baseline
T2 construct: Life Technologies (cells); host or cells: Flp-In T-REx HEK-293

human TRPV1 [2] = target: T2, human TRPV1; assay: Pre-incubation with PUFAs or capsazepine, then capsaicin (10 nM) response in HEK-293 TRPV1 cells; type: cell-based
Description: Intracellular calcium [Ca]i levels were assessed using the calcium 5 kit from Molecular Devices (# R8186, Sunnyvale, CA, USA) on a FlexStation 3 Microplate Reader (Molecular Devices, Sunnyvale, CA, USA). […] Probenecid (cat # 50027; Biotium) which helps to prevent expulsion of calcium indicator from the cells was added to a final concentration of 1.25 mM. 90 µL of the dye were loaded into each well of the plate and incubated for 1 h before reading in the FlexStation 3 at 37 °C. Fluorescence was recorded every 2 s (λ excitation = 485 nm, λ emission = 525 nm) for 5 min. After 1 min of baseline recording, 20 µL of the drug, dissolved in HBSS with 1% dimethyl sulfoxide (DMSO) (cat # D2650; Sigma-Aldrich, Melbourne, Australia) was added (final DMSO concentration was 0.1% in well). […]

human TRPV1 [3] = target: T2, human TRPV1; assay: Calcium 5 dye [Ca]i assay in HEK-293 Flp-In T-REx cells expressing TRPV1 (agonist response); type: cell-based; conditions: for Change in Ca5 fluorescence, individual experiments (CRC raw data): TRPV1 cells
Outline: as §1

HEK-293 EV cells = assay: Calcium 5 dye [Ca]i assay in HEK-293 empty vector (EV) cells; type: cell-based, human; conditions: 10 µM; HEK-293 EV cells; percentage of predrug baseline
Outline: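 Tetracycline at 1 µg ml^−1 was added 4 h before testing; cells were loaded with Calcium 5 dye for 1 h and read at 37 °C, with drug added after 1 min baseline (final 0.1% DMSO). The response was the % change from the 60 s baseline after solvent subtraction, and EC50/Emax came from a three-parameter logistic fit, reported as pEC50.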

T1 sequence (O75762 whole entry): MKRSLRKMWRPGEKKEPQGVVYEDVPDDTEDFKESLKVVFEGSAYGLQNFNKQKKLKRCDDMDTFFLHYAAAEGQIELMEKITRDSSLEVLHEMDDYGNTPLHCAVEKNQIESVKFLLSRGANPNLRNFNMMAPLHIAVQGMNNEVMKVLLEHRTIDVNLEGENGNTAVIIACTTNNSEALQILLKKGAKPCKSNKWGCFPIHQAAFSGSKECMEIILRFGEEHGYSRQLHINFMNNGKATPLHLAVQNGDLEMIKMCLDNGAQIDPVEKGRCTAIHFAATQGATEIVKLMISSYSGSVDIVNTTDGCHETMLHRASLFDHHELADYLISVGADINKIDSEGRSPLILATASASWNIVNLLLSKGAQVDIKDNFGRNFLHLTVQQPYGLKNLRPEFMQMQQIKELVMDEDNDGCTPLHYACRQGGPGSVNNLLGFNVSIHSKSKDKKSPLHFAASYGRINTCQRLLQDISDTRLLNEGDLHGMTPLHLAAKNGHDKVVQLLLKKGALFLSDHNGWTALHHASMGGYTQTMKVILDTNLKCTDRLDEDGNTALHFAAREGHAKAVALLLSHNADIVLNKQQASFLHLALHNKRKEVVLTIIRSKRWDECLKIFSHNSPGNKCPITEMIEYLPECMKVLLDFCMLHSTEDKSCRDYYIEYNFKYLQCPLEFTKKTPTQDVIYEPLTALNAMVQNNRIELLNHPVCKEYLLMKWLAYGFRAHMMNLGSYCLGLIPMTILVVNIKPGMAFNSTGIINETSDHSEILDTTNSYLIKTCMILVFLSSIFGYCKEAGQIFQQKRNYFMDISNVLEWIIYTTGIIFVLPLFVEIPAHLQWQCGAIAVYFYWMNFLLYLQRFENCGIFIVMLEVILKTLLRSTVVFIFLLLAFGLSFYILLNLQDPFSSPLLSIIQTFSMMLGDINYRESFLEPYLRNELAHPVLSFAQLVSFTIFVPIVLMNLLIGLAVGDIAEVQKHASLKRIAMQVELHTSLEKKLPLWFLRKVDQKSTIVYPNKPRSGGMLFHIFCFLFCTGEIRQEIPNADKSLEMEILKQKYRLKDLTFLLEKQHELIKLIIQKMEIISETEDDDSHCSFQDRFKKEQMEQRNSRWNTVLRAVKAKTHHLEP
T2 sequence (Q8NER1 whole entry): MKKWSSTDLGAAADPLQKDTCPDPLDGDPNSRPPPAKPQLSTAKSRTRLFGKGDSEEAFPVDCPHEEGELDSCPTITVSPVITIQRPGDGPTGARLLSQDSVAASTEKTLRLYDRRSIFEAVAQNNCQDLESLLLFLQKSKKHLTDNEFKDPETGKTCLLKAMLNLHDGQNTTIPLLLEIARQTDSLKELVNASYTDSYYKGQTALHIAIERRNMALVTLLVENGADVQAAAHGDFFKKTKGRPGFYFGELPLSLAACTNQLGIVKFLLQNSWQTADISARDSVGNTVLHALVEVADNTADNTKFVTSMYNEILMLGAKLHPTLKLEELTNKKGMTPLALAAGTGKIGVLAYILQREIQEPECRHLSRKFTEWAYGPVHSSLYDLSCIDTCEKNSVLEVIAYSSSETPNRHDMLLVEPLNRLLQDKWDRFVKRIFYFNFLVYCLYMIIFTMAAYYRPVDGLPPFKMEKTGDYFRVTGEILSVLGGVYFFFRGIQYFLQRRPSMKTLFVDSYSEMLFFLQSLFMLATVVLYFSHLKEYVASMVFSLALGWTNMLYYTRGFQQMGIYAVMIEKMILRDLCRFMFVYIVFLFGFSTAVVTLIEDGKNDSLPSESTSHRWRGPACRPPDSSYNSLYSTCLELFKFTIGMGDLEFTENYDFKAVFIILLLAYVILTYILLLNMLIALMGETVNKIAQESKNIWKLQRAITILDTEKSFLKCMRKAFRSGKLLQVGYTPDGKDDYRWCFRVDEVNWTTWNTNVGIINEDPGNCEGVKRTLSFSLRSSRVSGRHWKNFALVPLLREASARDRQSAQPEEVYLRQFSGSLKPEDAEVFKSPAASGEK

CC/C=C\C/C=C\C/C=C\C/C=C\C/C=C\C/C=C\CCC(=O)O [DHA, docosahexaenoic acid] was tested. Which “Elevation of [Ca]i in HEK-293 TRPA1 cells compared with HEK-293 EV cells” value (human TRPA1; 10 µM (cinnamaldehyde 300 µM)) did it give?
Its value is “did not produce a change”.

What about the “Change of Ca5 fluorescence, Mean ± SEM, TRPA1 (10 µM)” value (human TRPA1; 10 µM, HEK-293 TRPA1 cells, percentage of predrug baseline) of the same compound?
The value was 129 ± 81%.

What about the “TRPA1 activation at the highest concentration tested” value (human TRPA1; 30 µM) of the same compound?
Its value is “activated TRPA1”.

What about the Emax at 30 µM (human TRPA1; HEK293, read-out: Emax ± SEM % TRPA1 (30 µM), highest tested concentration (30 µM) or derived from concentration-response curves (cinnamaldehyde)) of the same compound?
The Emax at 30 µM was 408 ± 54%.

What about the “[Ca]i response (change in fluorescence), individual replicates” value (“[Ca]i response (change in fluorescence)” below) (human TRPA1; concentration -4.52288 (log)) of the same compound?
Its value is 600.618 and 528.86 and 310.75 and 311.859 and 419.884 and 278.355.

What about the “[Ca]i response (change in fluorescence)” value (human TRPA1; concentration -5 (log)) of the same compound?
The value was 508.031 and 185.633 and 12.6409 and 8.196 and 18.5259 and 39.1466.

What about the “[Ca]i response (change in fluorescence)” value (human TRPA1; concentration -5.52288 (log)) of the same compound?
The value was 5.528 and 1.551 and 4.973 and 2.123.

What about the “[Ca]i response (change in fluorescence)” value (human TRPA1; concentration -6 (log)) of the same compound?
The value was 3.48 and 2.006 and 3.985 and 2.738 and 3.1287 and 4.255.

And the “[Ca]i response (change in fluorescence)” value (human TRPA1; concentration -6.52288 (log))?
The value was 7.112 and 0.3749 and 2.033 and 5.1389.

What about the “[Ca]i response (change in fluorescence)” value (human TRPA1; concentration -7 (log)) of the same compound?
The value was 8.809 and 1.203 and 5.563 and 5.621.

And the “TRPV1 response after exposure to PMA” value (human TRPV1 [1]; PMA 100 nM, 5 min pretreatment)?
The value was “only observed when a phorbol ester was present”.

What about the “Drugs post-PMA, individual experiments” value (human TRPV1 [1]; PUFA 10 µM after PMA 100 nM for 5 min, response to PMA alone subtracted) of the same compound?
The value was 50.0906 and 48.3811 and 19.3352 and 66.6517 and 32.7216 and 44.0204 and 2.991.

And the “Drugs alone, individual experiments” value (human TRPV1 [1]; PUFA 10 µM without PMA pretreatment, TRPV1 cells)?
The value was 3.985 and 5.867 and 0 and 3.833 and 0.4866 and -0.286 and 0.9124 and 2.207.

And the “Effect of pre-treatment on the capsaicin response” value (human TRPV1 [2]; 10 µM, 5 min exposure, then capsaicin 10 nM)?
The value was “did not affect”.

And the “Post-capsaicin: response to subsequent capsaicin addition, individual experiments” value (human TRPV1 [2]; capsaicin 10 nM after 5 min drug 10 µM, TRPV1 cells)?
Its value is 262.478 and 230.552 and 119.965 and 325.766 and 236.554 and 370.087.

What about the “Pre-capsaicin: response to first drug, individual experiments” value (human TRPV1 [2]; drug 10 µM for 5 min, TRPV1 cells) of the same compound?
Its value is 15.3316 and 14.4172 and 9.221 and 4.601 and 11.1415 and 4.871.

What about the “Elevation of [Ca]i in HEK-293 TRPV1 cells compared with HEK-293 EV cells” value (human TRPV1 [3]; 10 µM) of the same compound?
The value was “did not produce a notable change”.

And the “Change of Ca5 fluorescence, Mean ± SEM, TRPV1 (10 µM)” value (human TRPV1 [3]; 10 µM, HEK-293 TRPV1 cells, percentage of predrug baseline)?
The value was 11 ± 2%.

What about the Emax at 30 µM (human TRPV1 [3]; HEK293, read-out: Emax ± SEM % TRPV1 (30 µM)) of the same compound?
The Emax at 30 µM was 29 ± 0.8%.

What about the “Change in Ca5 fluorescence, individual experiments (CRC raw data)” value (“Change in Ca5 fluorescence” for short) (human TRPV1 [3]; log concentration -4.52288 (M)) of the same compound?
The value was 30.4293 and 29.6434 and 28.2029 and 25.9718 and 28.1927 and 31.4702.

And the “Change in Ca5 fluorescence” value (human TRPV1 [3]; log concentration -5 (M))?
The value was 15.398 and 14.8517 and 2.207 and 13.9869 and 10.4035 and 11.2548.

And the “Change in Ca5 fluorescence” value (human TRPV1 [3]; log concentration -5.52288 (M))?
The value was 5.597 and 6.862 and 1.798 and 7.576.

What about the “Change in Ca5 fluorescence” value (human TRPV1 [3]; log concentration -6 (M)) of the same compound?
The value was 1.539 and 8.081 and 1.374 and 8.45 and 6.148 and 5.676.

And the “Change in Ca5 fluorescence” value (human TRPV1 [3]; log concentration -6.52288 (M))?
The value was 0.111 and 3.665 and 0.7828 and 7.557.

What about the “Change in Ca5 fluorescence” value (human TRPV1 [3]; log concentration -7 (M)) of the same compound?
Its value is 8.793 and 7.902 and 1.12 and 9.145.

What about the “Change of Ca5 fluorescence, Mean ± SEM, EV (10 µM)” value (HEK-293 EV cells) of the same compound?
The value was 11 ± 2%.
